In patent publication US20110143948A1, “MOLECULAR SIGNATURES AND BIOMARKERS ASSOCIATED WITH MELANOMA AND METHODS OF USE THEREOF” (priority 2008, published 2011):

System: ncRNAs (SEQ ID NO 28-89)
Test: ncRNA arrays of melanocytes, keratinocytes, normal skin, melanoma cell lines and patient samples
Design: species or system human
Settings: for ncRNA array expression, patient 2: melanoma patient 2 sample compared to normal skin; for ncRNA array expression, patient 3: melanoma patient 3 sample compared to normal skin; for ncRNA array expression, patient 4: melanoma patient 4 sample compared to normal skin; for ncRNA array expression, patient 5: melanoma patient 5 sample compared to normal skin; for ncRNA array expression, patient 6: melanoma patient 6 sample compared to normal skin; for ncRNA array expression, patient 7: melanoma patient 7 sample compared to normal skin; for ncRNA array expression, patient 8: melanoma patient 8 sample compared to normal skin; for ncRNA array expression, patient 9: melanoma patient 9 sample compared to normal skin; for ncRNA array expression, patient 10: melanoma patient 10 sample compared to normal skin; for ncRNA array expression, patient 19: melanoma patient 19 sample compared to normal skin; for ncRNA array expression, patient 20: melanoma patient 20 sample compared to normal skin; for ncRNA array expression, patient 21: melanoma patient 21 sample compared to normal skin; for ncRNA array expression, patient 22: melanoma patient 22 sample compared to normal skin; for ncRNA array expression, patient 23: melanoma patient 23 sample compared to normal skin; for ncRNA array expression, patient 24: melanoma patient 24 sample compared to normal skin; for ncRNA array expression, patient 25: melanoma patient 25 sample compared to normal skin; for ncRNA array expression, patient 26: melanoma patient 26 sample compared to normal skin; for ncRNA array expression, patient 27: melanoma patient 27 sample compared to normal skin; for ncRNA array expression, patient 28: melanoma patient 28 sample compared to normal skin; for ncRNA array expression, patient 29: melanoma patient 29 sample compared to normal skin; for ncRNA array expression, patient 30: melanoma patient 30 sample compared to normal skin
Method in brief: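 Total RNA from melanocytes, keratinocytes, normal human skin, melanoma cell lines and melanoma patient samples was profiled on an array of >10,000 putative (>200 nt) human and mouse ncRNAs plus RefSeq mRNA probes. Expression was compared with melanocytes or normal skin, keratinocyte signatures were subtracted, and hits were validated by qRT-PCR and Northern blot.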

Substance	ncRNA array expression, patient 2	ncRNA array expression, patient 3	ncRNA array expression, patient 4	ncRNA array expression, patient 5	ncRNA array expression, patient 6	ncRNA array expression, patient 7	ncRNA array expression, patient 8	ncRNA array expression, patient 9	ncRNA array expression, patient 10	ncRNA array expression, patient 19	ncRNA array expression, patient 20	ncRNA array expression, patient 21	ncRNA array expression, patient 22	ncRNA array expression, patient 23	ncRNA array expression, patient 24	ncRNA array expression, patient 25	ncRNA array expression, patient 26	ncRNA array expression, patient 27	ncRNA array expression, patient 28	ncRNA array expression, patient 29	further results
SEQ ID NO 77 (AAGTTTCCACGGCAGGTTCTCGTAGCACCTTTGGTCAAGAACTGAAGGGGCCTTTAGATG; listed as DNA, chemistry not given here; listed as Homo sapiens)	−2.141	−1.9159	−2.042	−1.549	−0.8383	−1.639	−1.644	−2.053	−2.146	−0.2581	−1.526	−1.23	−0.5892	0.23	−1.578	−2.219	−2.157	−1.387	−1.165	−1.796	ncRNA array expression, patient 30: 0.6447
SEQ ID NO 78 (ATGGAAAGGCCAGGGGAGGGTGGAGCTCAGGAGTGGAAGCACAGGGACTAAGGCCTGAGC; listed as DNA, chemistry not given here; listed as Homo sapiens)	−3.7	−3.634	−3.593	−3.41	−1.8308	−3.861	−3.607	−3.9856	−3.496	−2.807	−3.82	−3.781	−1.089	−1.0414	−3.419	−3.518	−3.351	−3.653	−3.215	−3.656	ncRNA array expression, patient 30: 1.597
SEQ ID NO 79 (GTGTGTACTGATGTCAAAGACCAAATGGATGCCCCTGTGGCCAACAGTACCTTGTTAAAC; listed as DNA, chemistry not given here; listed as Homo sapiens)	0.5938	1.324	1.428	1.43	1.201	1.729	1.728	1.129	0.1808	1.52	1.494	1.271	1.165	1.445	2.943	1.206	0.7039	0.9237	0.5852	0.6174	ncRNA array expression, patient 30: 0.5148
SEQ ID NO 80 (CACACAGCCCAGTCTGCCTGTGATGGTAATATAAATCAAACCAGGGACCCAAGAGCCCAG; listed as DNA, chemistry not given here; listed as Homo sapiens)	−1.594	−1.487	−1.4489	−1.208	−0.982	−1.213	−1.338	−1.383	−1.815	−1.234	−2.056	−1.5287	−0.7073	−0.1143	−1.175	−1.992	−1.983	−1.665	−1.4589	−1.489	ncRNA array expression, patient 30: 0.1296
SEQ ID NO 81 (CTAGGGGCGGAGTTTCTCGTAAGGGGCAAGGCCAAGGCATCTTGTATTGGGGCTGACAGG; listed as DNA, chemistry not given here; listed as Homo sapiens)	−2.704	−2.664	−2.74	−2.515	−1.776	−2.533	−2.25	−2.579	−3.027	−2.079	−2.527	−2.568	−1.3874	−1.288	−2.451	−2.889	−3.081	−2.77	−2.666	−2.727	ncRNA array expression, patient 30: 2.229
SEQ ID NO 82 (GAAGTCAGAAACTAAAGTTCCCTTCTAAGACAAAATCCTGCTTTGGAGAAAAAAAAAAAT; listed as DNA, chemistry not given here; listed as Homo sapiens)	−3.153	−2.943	−3.11	−2.733	−1.179	−3.133	−2.955	−3.056	−3.4499	−3.347	−3.111	−3.1409	−2.791	−3.009	−3.02	−3.428	−3.448	−3.18	−3.348	−3.301	ncRNA array expression, patient 30: −2.485
SEQ ID NO 83 (TCAGTTTGATGATTGGGCTAGGGAATGAAGCTTTGCCACTTAGGAGATAAACCCCATAAC; listed as DNA, chemistry not given here; listed as Homo sapiens)	−1.488	−1.164	−1.691	−1.156	−0.6047	−0.9496	−0.9534	−1.016	−1.381	−1.6448	−1.228	−1.45	−1.116	−1.855	−1.066	−1.422	−1.405	−1.43	−1.28	−1.1118	ncRNA array expression, patient 30: −1.73
SEQ ID NO 84 (TTATTAAAAGGACTGAGGATCATGTGTGTTGGTGTGTCCCGGAGTCTGCTCTAAGGTAAA; listed as DNA, chemistry not given here; listed as Homo sapiens)	1.997	1.789	1.046	0.9959	0.3741	2.005	1.104	1.55	0.2561	1.044	1.668	1.56	2.01	2.078	1.532	1.329	1.373	1.88	1.062	1.558	ncRNA array expression, patient 30: 1.105
